Read-outs that look alike come from different tables or passages of the source.
Legend:
[1] = test system: P. vivax clinical isolates; test: Ex vivo drug susceptibility assay (schizont maturation) on clinical isolates; type: cell-based; details: ex vivo clinical isolates, n = 6, read-out: P. vivax median EC50 (range)
Description: (§1) Plasmodium isolates were collected from patients attending public health clinics in Timika (Papua, Indonesia), a region endemic for multidrug-resistant strains of P. vivax and P. falciparum ([38][–][40]). Patients with symptomatic malaria presenting to an outpatient facility were recruited into the study if infected with either P. falciparum or P. vivax, with a parasitemia of between 2,000 µL^−1 and 80,000 µL^−1, and the majority (>60%) of asexual parasites at the ring stage of development. Venous blood (5 mL) was collected by venipuncture, and after removal of patient white blood cells using Plasmodipur filters (EuroProxima B.V., The Netherlands), packed infected red blood cells (iRBCs) were used for the ex vivo drug susceptibility assay.
(§2) Drug plates were pre-dosed by diluting the compounds in 50% methanol followed by lyophilization and storage at 4°C. Drug susceptibility of P. vivax and P. falciparum isolates was measured using a protocol modified from the WHO microtest as described previously ([40], [41]). […] A candle jar was used to mature the parasites at 37.0°C for 35–56 h. […] Thick blood films made from each well were stained with 5% Giemsa solution for 30 min and examined microscopically. The number of schizonts per 200 asexual-stage parasites was determined for each drug concentration and normalized to the control well without drug. The dose response data were analyzed using non-linear regression analysis, and the EC50 value was derived using an inhibitory sigmoid Emax model (In Vitro Analysis and Reporting Tool [IVART] [42, 43]).

[2] = test system: P. falciparum clinical isolates; test: as above; type: cell-based; details: ex vivo clinical isolates, n = 15, read-out: P. falciparum median EC50 (range)
Description: as §1, §2

[3] = test system: P. falciparum Dd2 parasites; test: Fractional inhibitory concentration, artemisinin and MMV1557817 interaction; type: cell-based
Description: Fractional inhibitory concentrations (FIC) were determined as previously described ([44]). […] The FIC for each drug was determined by EC50 of drug in a mixture/EC50 of drug alone, and the sum of FIC was determined by the addition of the two individual FIC values. Synergistic FIC is described as <1, additive = 1 < 2, and antagonism > 2 ([44]).

PfA-M1 = target: T1, PfA-M1 (Plasmodium falciparum, UniProt O96935); test: Recombinant aminopeptidase fluorescence assay (H-Leu-NHMec); type: biochemical, P. falciparum
T1 construct: made in house
T1 sequence (O96935 whole entry): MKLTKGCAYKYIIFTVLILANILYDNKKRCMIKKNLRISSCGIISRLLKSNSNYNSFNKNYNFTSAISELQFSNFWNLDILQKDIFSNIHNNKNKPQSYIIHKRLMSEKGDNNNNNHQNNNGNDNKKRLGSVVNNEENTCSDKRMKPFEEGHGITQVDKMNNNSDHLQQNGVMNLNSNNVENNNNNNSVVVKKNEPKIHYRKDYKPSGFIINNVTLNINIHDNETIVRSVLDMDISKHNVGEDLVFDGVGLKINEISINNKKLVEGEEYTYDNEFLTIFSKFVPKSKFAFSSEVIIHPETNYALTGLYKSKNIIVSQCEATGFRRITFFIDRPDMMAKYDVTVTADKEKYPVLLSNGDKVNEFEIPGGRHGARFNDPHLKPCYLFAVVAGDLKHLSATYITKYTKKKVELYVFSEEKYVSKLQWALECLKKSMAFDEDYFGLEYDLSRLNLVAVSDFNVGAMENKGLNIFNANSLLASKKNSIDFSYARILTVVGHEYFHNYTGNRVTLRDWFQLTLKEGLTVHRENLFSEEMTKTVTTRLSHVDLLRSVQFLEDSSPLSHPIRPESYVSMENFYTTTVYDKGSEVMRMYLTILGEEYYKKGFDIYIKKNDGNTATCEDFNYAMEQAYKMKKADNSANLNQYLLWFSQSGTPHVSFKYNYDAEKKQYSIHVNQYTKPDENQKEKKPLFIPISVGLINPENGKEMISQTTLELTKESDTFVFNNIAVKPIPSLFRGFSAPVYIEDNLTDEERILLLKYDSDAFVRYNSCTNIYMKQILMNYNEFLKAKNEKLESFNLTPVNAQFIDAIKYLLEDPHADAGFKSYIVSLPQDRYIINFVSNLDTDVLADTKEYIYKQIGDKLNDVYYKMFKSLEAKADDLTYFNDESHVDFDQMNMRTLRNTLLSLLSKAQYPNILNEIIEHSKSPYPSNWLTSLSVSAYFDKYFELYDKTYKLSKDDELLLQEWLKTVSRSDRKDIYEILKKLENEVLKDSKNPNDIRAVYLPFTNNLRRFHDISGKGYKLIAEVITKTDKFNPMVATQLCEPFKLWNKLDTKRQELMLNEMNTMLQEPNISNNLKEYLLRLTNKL
Description: Inhibition of aminopeptidase activity assays were performed against nine aminopeptidases: the M1 alanyl and M17 leucyl aminopeptidases from P. falciparum (PfA-M1; PfA-M17), P. vivax (Pv-M1; Pv-M17), and P. berghei (Pb-M1; Pb-M17), and three human M1 homologs: LTA4H (OriGene TP307617), ERAP1 (OriGene TP314469), and ERAP2 (Creative BioMart ERAP2-304H). The Plasmodium enzymes were produced recombinantly as described previously ([16], [17]), and the human recombinant enzymes were purchased from commercial suppliers as indicated.
The concentration of H-Leu-NHMec in the assay was held constant for each enzyme and ranged from 10 to 100 µM, depending on the enzyme. Reactions were measured at 37°C in white 384-well plates in a total volume of 25 or 50 µL using a spectrofluorimeter (BMG FLUOstar) with excitation at 355 nm and emission at 460 nm. The fluorescence signal was continuously monitored until a final steady-state velocity, v, was obtained. Inhibition constants were calculated from biological triplicates made from three different protein preparations.
Substrate concentrations were selected to allow sensitive detection of enzyme activity while not exceeding the Km for each enzyme. A compound concentration range was selected to obtain a complete inhibition curve (0%–100 %) in biological triplicate. Where possible, the Ki values were calculated by plotting the initial rates versus inhibitor concentration and fitting to the Morrison equation for tight-binding inhibitors in GraphPad Prism (V.8.4.1; non-linear regression method).

[4] = test system: PfNF54-s16-GFP early (I–III) stage gametocytes; test: Image-based gametocyte viability assay; type: cell-based, P. falciparum; details: Plasmodium falciparum; stages I–III, 72 h; read-out: IC50 Early-stage Gametocytes (mean ± SD)
Description: Viability assays were performed as described previously ([32], [33]) against PfNF54-s16-GFP early(I–III), late (IV–V), and mature (V) stage gametocytes. Gametocytes were assessed at the appropriate time points following gametogenesis; early stage (day 2), late stage (day 8), and mature stage (day 12). Compounds diluted in 4% DMSO were transferred into 384-well imaging plates; gametocytes prepared as described previously (35) were added, and plates were incubated for 72 h in 5% CO2, 5% O2, and 60% humidity at 37°C. After 72 h incubation, 5 µL of MitoTracker Red CMH2XRos in phosphate buffered saline (PBS) was added per well, and plates were incubated overnight. Image acquisition and analysis were undertaken on the Opera QEHS micro-plate confocal imaging system. An Acapella-based script using the CMH2XRos fluorescent signal and the GFP-designated object quantifying viable stage-dependent parasite morphology identified gametocytes. Gametocyte viability was calculated as a percentage of the positive (5 µM puromycin) and negative (0.4% DMSO) controls. IC50 values were calculated using a 4-parameter log dose, non-linear regression analysis, with sigmoidal dose response (variable slope) curve fit using GraphPad Prism (ver 4.0). No constraints were used in the curve fit. Chloroquine, artesunate, pyronaridine, pyrimethamine, dihydroartemisinin (DHA), and methylene blue were used as control compounds. Experiments were performed as two or three biological replicates in duplicate.

Pf3D7 = test: 72 h ring killing assay (SYBR Green I); type: cell-based, P. falciparum; details: Plasmodium falciparum, Pf3D7 ring stage
Description: Viability assays were performed as previously described ([7]). Sorbitol-synchronized Pf3D7 (a laboratory strain which is broadly sensitive to standard antimalarial drugs) at ring stages was cultured in the presence of drug serially diluted across a 96-well plate at 0.5% parasitemia and 2% hematocrit. Cultures were grown for 72 h before being placed at −80°C. After thawing, cultures were incubated with equal volumes of lysis buffer (20 mM Tris [pH 7.5], 5 mM EDTA, 0.008% [wt/vol] saponin, and 0.008% [vol/vol] Triton x-100) containing 0.2 µL/mL SYBR Green I Nucleic Acid Gel Stain (10,000× in dimethyl sulfoxide [DMSO]; Thermo Fisher). After 1 h incubation, fluorescence intensity was read on a Glomax Explorer Fully Loaded (Promega) at emission wavelengths of 500–550 nm and an excitation wavelength of 475 nm. Graphs were generated using GraphPad Prism (V.8.4.1). Parasite survival was compared with vehicle-treated cultures in three biological replicates performed in triplicate. This EC50 was used in asexual P. falciparum assays unless otherwise stated.

[5] = read-out: Inhibition of aminopeptidase activity

Compound	EC50 ([1]; Plasmodium vivax)	EC50 [1]	EC50 ([2]; Plasmodium falciparum)	EC50 [2]	MMV1557817 mean FIC ± SEM ([3]; ratio MMV1557817:artemisinin 1:4)	MMV1557817 mean FIC ± SEM ([3]; ratio MMV1557817:artemisinin 2:3)	MMV1557817 mean FIC ± SEM ([3]; ratio MMV1557817:artemisinin 3:2)	MMV1557817 mean FIC ± SEM ([3]; ratio MMV1557817:artemisinin 4:1)	MMV1557817 mean FIC ± SEM ([3]; ratio MMV1557817:artemisinin 5:0)	Ki (PfA-M1; Pf M1, Morrison equation, read-out: Ki^(app) ± SEM)	inhibition at 1.25 µM (PfA-M1; [5])	inhibition at 10 µM (PfA-M1; [5])	IC50 [4]	EC50 (Pf3D7)	inhibition at 500 µM (PfA-M1; [5])	inhibition at 1000 µM (PfA-M1; [5])
CC(C)(C)CC(=O)NC(C(=O)NO)c1ccc(-c2cc(F)c(F)c(F)c2)cc1 (stereo not drawn) [MMV1557817, N-(2-(hydroxyamino)−2-oxo-1-(3′,4′,5′-trifluoro-[1,1′-biphenyl]-4-yl)ethyl)-3,3-dimethylbutanamide]	69 nM	68.6 nM	98 nM	98.1 nM	0.87 ± 0.08	1.13 ± 0.19	1.10 ± 0.20	1.05 ± 0.18	1.00 ± 0.19	308 nM	83%	100%	99 nM	39 nM	–	–
C[C@H]1[C@H](OC(=O)CCC(=O)O)O[C@@H]2O[C@@]3(C)CC[C@H]4[C@H](C)CC[C@@H]1[C@@]24OO3 [artesunate]	0.6 nM	1 nM	1.2 nM	1 nM	–	–	–	–	–	–	4.8%	11.9%	16 ± 5 nM	4 nM	16.8%	43.2%
